Measurements from patent publication US20130065818A1, “Arylamide Compounds And Compositions And Uses Thereof” (POLYMEDIX, priority 2006, published 2013).
Converted amounts (≈) assume the structure as drawn. “Also recorded” adds a separate entry of the source.

Experiments:
[1] = tested on: Fluoroquinolone-Resistant Methicillin-Resistant Staphylococcus aureus Strain K950; experiment: MIC characterization of strain K950; format: cell-based; conditions: read-out: MIC (Minimum Inhibitory Concentration)
[2] = tested on: fluoroquinolone-resistant, methicillin-resistant Staphylococcus aureus (K950); experiment: NZW rabbit keratitis model, corneal colony counts; format: in vivo; conditions: for Statistical comparison of corneal colony counts (< = significantly fewer colony counts): drops every 15 min
Text: (§1) One purpose of the following experiments was to compare the efficacy of 1% Oligomer 2, 0.5% Oligomer 2, and 5% vancomycin in the treatment of a fluoroquinolone-resistant, methicillin-resistant Staphylococcus aureus infection in the NZW rabbit keratitis model with or without intact corneal epithelia.
Nothing was done to the right eyes.
as §1, with “0.25%” for “1%”, “with and without 0.005% benzalkonium chloride,” for “0.5% Oligomer 2,”, “epithelia. The 0.005% benzalkonium chloride has been added to try to increase the penetration of 0.25% Oligomer 2 through the corneal epithelium.” for “epithelia.”
One purpose of the following experiments was to determine the efficacy of 0.25% Oligomer 4, with and without 200 μM Farnesol, and 200 μM Farnesol in the treatment of a fluoroquinolone-resistant and methicillin-resistant Staphylococcus aureus infection in the NZW rabbit keratitis model with or without intact corneal epithelia. The 200 μM Farnesol has been added to try to increase the efficacy and penetration of 0.25% Oligomer 4 through the corneal epithelium.

[3] = NZW rabbit keratitis model, clinical evaluation (Total Ocular Score); conditions: Oligomer 2 study, N 3
Procedure: Fifteen rabbits were received from Myrtles' Rabbitry, Thompson Station, TN. The clinical isolate of fluoroquinolone-resistant, methicillin-resistant (MRSA) Staphylococcus aureus (K950) was subcultured on 5% sheep blood agar and incubated at 37° C. in 6% CO2 overnight. The next morning, the MRSA strain was suspended in sterile trypticase soy broth to a 0.5 McFarland Standard, containing approximately 5×10^8 cfu/ml of bacteria. The absorbance of the suspension was measured at 650 nm using a Beckman DU-70 spectrophotometer. OD readings of 0.07 corresponded to 5×10^8 cfu/ml of bacteria. This concentration was appropriately diluted in sterile trypticase soy broth to provide the inoculum of approximately 1,000 (1.0×10^3) cfu/eye in 25 μl. Colony counts were performed on the inoculum to determine the actual cfu inoculated. Following general anesthesia with ketamine and xylazine and topical anesthesia with proparacaine and prior to bacterial inoculation in the left eyes, 6 mm areas of the corneal epithelia was removed centrally with an Amoils epithelial scrubber. Nothing was done to the right eyes. The 15 rabbits were then inoculated intrastromally in both eyes with 25 μl of the bacterial dilution of approximately 10^3 cfu/eye of the bacteria. The bacterial inoculation of the left eyes was directly under the epithelial defect created by the Amoils epithelial scrubber. The epithelia were removed in the left corneas in order to determine whether this layer of the cornea is a barrier for Oligomer 2 penetration when compared to the right cornea with an intact epithelium. A colony count was done on the inoculum to determine the actual cfu inoculated. The rabbits were immediately treated with analgesia in the form of and intramuscular injection of ketoprofen, 1.5 mg/kg. After 4 hours, the 15 rabbits were divided into 4 treatment groups and one untreated control group sacrificed at the onset of therapy. Both eyes of each rabbit of the treatment groups were treated with one 37 μl drop of the coded solutions or control Saline or 1 drop of vancomycin from its dropper bottle. The Oligomer 2 concentrations were masked and labeled as 1 and 2. The masked concentrations were 1% Oligomer 2 and 0.5% Oligomer 2 but the specific concentrations of solutions were not known to the lab workers who carried out the experiment. The vancomycin and control (Tris-Buffered Saline) were not masked.
Treatment was scheduled for every 15 minutes for 5 hours (21 total doses). However, PMX-1 and PMX-2 were exhausted after the 19th dose. Therefore, the actual treatment was 15 minutes for 4.5 hours (19 total doses). The 3 rabbits in group V were sacrificed 4 hours PI and large 9.5 mm buttons were removed from the corneas. These were placed in 1 ml of PBS and kept on ice. The corneal buttons were homogenized for 25 seconds on ice using the motorized homogenizer. After homogenization, colony counts were done on the homogenates using 5% sheep blood agar plates to determine the amount of bacteria contained in the corneas at the onset of therapy. Following the completion of therapy, the eyes were examined for clinical signs of infection. One hour after the final treatment, the treated rabbits (Groups I-IV) were sacrificed and large 9.5 mm buttons were removed from the corneas. These were placed in 1 ml of PBS and kept on ice. The corneal buttons were homogenized for 25 seconds on ice using the motorized homogenizer. After homogenization, colony counts were performed on the homogenates using 5% sheep blood agar plates to determine the amount of bacteria contained in the corneas after treatment. The next morning, the plates were counted and the number of cfu/eye of Staphylococcus aureus was determined for each cornea.
Fifteen rabbits were received from Myrtles' Rabbitry, Thompson Station, TN.

## CN[C@H](CC(C)C)C(=O)N[C@H]1C(=O)N[C@@H](CC(N)=O)C(=O)N[C@H]2C(=O)N[C@H]3C(=O)N[C@H](C(=O)N[C@H](C(=O)O)c4cc(O)cc(O)c4-c4cc3ccc4O)[C@H](O)c3ccc(c(Cl)c3)Oc3cc2cc(c3O[C@@H]2O[C@H](CO)[C@@H](O)[C@H](O)[C@H]2O[C@H]2C[C@](C)(N)[C@H](O)[C@H](C)O2)Oc2ccc(cc2Cl)[C@H]1O [Vancomycin, reference compound]
[1]
  MIC: 2 µg/mL (≈ 1.38 µM)
[2]; Ker-1 (Example 9), abraded (removed) epithelium, 19 doses
  Statistical comparison of corneal colony counts (< = significantly fewer colony counts): Vancomycin<Saline Control
[2]; Ker-1 (Example 9), intact epithelium, 19 doses
  Statistical comparison of corneal colony counts (< = significantly fewer colony counts): Vancomycin<Saline Control; also recorded: Vancomycin<PMX-1; also recorded: Vancomycin<PMX-2
[2]; Ker-2 (Example 10), abraded (removed) epithelium, 21 doses
  Statistical comparison of corneal colony counts (< = significantly fewer colony counts): Vancomycin<Saline Control
[2]; Ker-2 (Example 10), intact epithelium, 21 doses
  Statistical comparison of corneal colony counts (< = significantly fewer colony counts): Vancomycin<Saline Control; also recorded: Vancomycin<PMX-B
[2]; Log10 CFU/ml, < = significantly fewer colony counts
  Effect of Abraded Epithelium on colony counts (Intact vs. Abraded, two sample T-test): Abraded = Intact
[2]; Oligomer 2 study, two sample T-test, < = significantly fewer colony counts
  Effect of Abraded Epithelium on Effectiveness of Each Test Solution (colony counts, abraded vs. intact): Abraded = Intact
[3]; abraded epithelium
  Total Ocular Score, Median: 9.5
[3]; intact epithelium
  Total Ocular Score, Median: 9.5
